In publication PMC9769880, “Diverse Sensory Repertoire of Paralogous Chemoreceptors Tlp2, Tlp3, and Tlp4 in Campylobacter jejuni” (Microbiology Spectrum, 2022):
Where two headings read alike, the source gives them in different places.

Experiments:
Tlp2 [1] = biological target: T1, Tlp2 (Campylobacter jejuni, UniProt Q0PBZ3); assay: biochemical; assay type: binding
Procedure: (§1) His-tagged proteins (Tlp2, -3, and -4) were prepared as previously described ([11]) DNA segments encoding the periplasmic sensory domains (33 to 286 amino acids) of Tlp2 and (38 to 297 amino acids) of Tlp4 were amplified (see Table S7), ligated into pGEM-T Easy (Promega) and subcloned into pET-19b (Novagen) (see Table S6). Recombinant proteins were expressed in E. coli BL21(DE3) using 1 mM IPTG (isopropyl-β-D-thiogalactopyranoside) and purified using His-select-nickel chromatography as described previously ([8], [11]). The purity of the proteins was confirmed by SDS-PAGE and Western blot analysis with anti-His antibodies (Bio-Rad). Protein concentrations were determined using a NanoDrop spectrophotometer (Thermo Fisher).
(§2) Surface plasmon resonance (SPR) experiments were performed as described previously ([10], [11]) with the following modifications. Briefly, purified proteins were diluted to 0.15 μM in sodium acetate (pH 4.0) and immobilized onto an active flow cell of a CM5 sensor chip with a flow rate of 5 μL/min for 7 min of contact time using a standard amine coupling protocol. Immobilized protein levels for all three proteins ranged from 6028.3 to 9779.3 response units (RU) providing a minimum expected response maximum (RMax) between 20 and 50 RU for the small molecules tested. […] All ligands were prepared in PBS (pH 7.2) and serially diluted from 0.2 to 0.0125 mM. A 10-min dissociation period was allocated after the introduction of each analyte. SPR experiments were performed in single-cycle kinetics mode using the BIAcore S200 biosensor system (Cytiva) at 25°C in PBS (pH 7.2) at a flow rate of 30 μL/min. The equilibrium dissociation constant (KD) for each analyte was determined using BIAcore S200 Evaluation software with a report point 4 s after the injection stop to account for the bulk transfer of the small molecule against a large amount of immobilized protein (as shown in Fig. S5).

Tlp4 [2] = biological target: T2, Tlp4 (Campylobacter jejuni, UniProt Q0PBP3); assay: biochemical; assay type: binding
Procedure: as §1, §2

Tlp2 [3] = biological target: T1, Tlp2; assay type: binding
Procedure: (§3) Glycan (>400 monosaccharides or complex glycans) and small molecule arrays containing amino acids and salts were performed as described previously by Day et al. ([67]). Briefly, 1 μg of purified recombinant protein was complexed with anti-His antibody (Cell Signaling Technology) and rabbit anti-mouse/goat anti-rabbit Alexa 555-IgG (Thermo Scientific) at a molar ratio of 1:0.5:0.25 and then incubated on the array for […] in phosphate-buffered saline (PBS). The array slides were scanned at 488/520 nm and analyzed using InnoScan 1100 with MAPIX software. All arrays were performed in triplicate with a total of 12 data points for each glycan tested; the complete data set and MIRAGE (i.e., minimum information regarding a glycomics experiment) results are shown in Tables S3 and S8.
(§4) Table S8 - Supplementary glycan microarray document based on M IRAGE guidelines. D O I:
(§5) Classification Guidelines
(§6) 1. Sample: Glycan Binding Sample
(§7) Origin: Helicobacter pylori SS1; produced as a recombinant His - tagged protein in E.
(§8) The preparation of Tlp2,3, and 4 is explained in the Materials and Methods section:
(§9) Expression and purification of the periplasmic domain of Tlp2,3, and 4.
(§10) Sample Sample is a His Tagged protein containing only the periplasmic receptor domain of the modifications full length Tlp2,3, and 4transmembrane protein.
(§11) Please see Materials and Methods: Tlps 2/3/4 bind to a range of ligands, including […]
(§12) Proteins were complexed with mouse anti- his antibody, with secondary and tertiary AlexaFluor555 antibodies (rabbit anti-mouse, goat anti-rabbit) at a molar ratio of 4:2:1.
(§13) The protein/antibody complex was incubated on ice for 10 mins prior to placing on the Assay protocol array. Arrays were performed with 1 µg of complexed protein incubated on the array for 20 min. Arrays were then washed 3 times in Array PBS (PBS + 2mM MgCl2 + 2mM CaCl2) then dried by centrifugation for 3 min at 300 x g . Scanning was performed us ing an Innopsys InnoScan 1100AL and analyzed using Mapix (Innopsys). Yes/no binding was determined by six positive replicate spots in three replicate experiments. Positive […]
(§14) Glycan Glycans in this study are listed in Table S2 and is a published library in doi:
(§15) Glycans were prepared in one of two ways for printing:
(§16) Glycan 1. Glycans (with IDs in number/letter format; e.g. 1A, 4C, 7K) were sourced modifications commercially from Dextra Laboratories, Elicityl and Carbosythn and were made into glycoamines using the protocol published in Day et al 2009 (doi:
(§17) Glycan arrays: We only use glycan arrays as a yes/no binding tool. Due to this we look only at binding that is unambiguously above background vs lack of binding above background. Average background + 3x standard deviation of the background of 20 sets of 4 spots of DMF:DMSO only spots is applied to determine if binding observed is […]
(§18) Only spots with values equal to or greater than this value were considered as binding from data of any tested slide. These values are slide […]
(§19) Data Small molecule arrays: We only use amino acid arrays as a yes/no binding tool. Due interpretation to this we look only at binding that is unambiguously above background vs lack of binding above background. Average background + 3x standard deviation of the background of 6 spots of PBS + 2% glycerol only spots is applied to determine if […]
(§20) Only spots with values equal to or greater than this value were considered as binding from data of any tested slide. These values are slide dependent. […]

Tlp4 [4] = biological target: T2, Tlp4; assay type: binding
Procedure: as §3, §4, §5, §6, §7, §8, §9, §10, §11, §12, §13, §14, §15, §16, §17, §18, §19, §20

Tlp3 [5] = biological target: T3, Tlp3 (Campylobacter jejuni, UniProt Q0P864); assay: Glycan/small molecule arrays with Tlp3; conditions: yes/no binding
Procedure: as §3, §4, §5, §6, §7, §8, §9, §10, §11, §12, §13, §14, §15, §16, §17, §18, §19, §20

WT Tlp3^LBD = assay: SPR competition assay (A-B-A inject); assay type: binding, Campylobacter jejuni; conditions: 15 seconds after injection-B; glucose 300 µM, fucose 300 μM, malic acid 200 μM
Procedure: . Competition A-B-A analyses determine the specificity of the potential ligand-binding site preferences of WT Tlp3^LBD. The bound protein is saturated with the first analyte (A), followed by the introduction of a second analyte (B); the assay is designed to show whether a cumulative response is observed after the second analyte (B) is added. A cumulative response indicates two independent binding sites, whereas the lack of a cumulative response indicates a single site where ligands compete for binding, i.e., when analyte A occupies a ligand binding site, analyte B cannot bind. […] All response data were normalized to a 100-Da molecular weight for each analyte, allowing direct comparison of the responses. Both actual RU values and theoretical values are recorded for comparison.
Figure S6. […] A) Injections are […]
at 300 μM for 60 seconds). Final responses units (RU) of injections are recorded (indicated by dashed vertical […]
81 at 15 s econds after injection- B and l fu cose […]
and fucose were compet ed was 4.4 RU ± 0.46. As this value sits be low 5 RU, it indicates direct competition for […]
Final respons es units (RU) of injections ar e re cor ded (indicated […]
As this value sits between
5.07- 13.5 RU, it indicates direct competition for the same site with glucos e replacing some of the bound malic acid during the 60 second injection- B.

Tlp3 [6] = biological target: T3, Tlp3; assay: biochemical; assay type: binding
Procedure: as §1, with “The purity of the proteins was confirmed by SDS-PAGE and Western blot analysis with anti-His antibodies (Bio-Rad).” left out
Surface plasmon resonance (SPR) experiments were performed as described previously ([10], [11]) with the following modifications. […] All ligands were prepared in PBS (pH 7.2) and serially diluted from 0.2 to 0.0125 mM. A 10-min dissociation period was allocated after the introduction of each analyte. SPR experiments were performed in single-cycle kinetics mode using the BIAcore S200 biosensor system (Cytiva) at 25°C in PBS (pH 7.2) at a flow rate of 30 μL/min. The equilibrium dissociation constant (KD) for each analyte was determined using BIAcore S200 Evaluation software with a report point 4 s after the injection stop to account for the bulk transfer of the small molecule against a large amount of immobilized protein (as shown in Fig. S5).

Δtlp2,3,4 triple mutant = assay type: cell-based; conditions: compared with the other mutants
Tlp3^LBD K149A = Tlp3^LBD K149A (Campylobacter jejuni, UniProt Q0P864, K149A); assay: biochemical
Tlp3^LBD W151A = Tlp3^LBD W151A (Campylobacter jejuni, UniProt Q0P864, W151A); assay: biochemical
Tlp3^LBD D169A = Tlp3^LBD D169A (Campylobacter jejuni, UniProt Q0P864, D169A); assay: biochemical
Tlp3^LBD D170A = Tlp3^LBD D170A (Campylobacter jejuni, UniProt Q0P864); assay: biochemical
Tlp3^LBD D196A = Tlp3^LBD D196A (Campylobacter jejuni, UniProt Q0P864, D196A); assay: biochemical
[7] = SPR KD, mean ± SD, NB = no binding, read-out: Tlp2 Affinity
[8] = SPR KD, mean ± SD, NB = no binding, read-out: Tlp4 Affinity

T3 sequence (Q0P864 entry or part of it): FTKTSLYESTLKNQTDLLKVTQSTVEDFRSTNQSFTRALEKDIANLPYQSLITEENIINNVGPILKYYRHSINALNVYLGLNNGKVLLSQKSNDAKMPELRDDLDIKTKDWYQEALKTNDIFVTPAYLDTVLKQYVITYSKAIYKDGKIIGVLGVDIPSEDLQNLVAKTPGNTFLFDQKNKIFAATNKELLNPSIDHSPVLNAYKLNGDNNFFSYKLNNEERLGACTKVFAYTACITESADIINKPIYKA
T1 sequence (Q0PBZ3 entry or part of it): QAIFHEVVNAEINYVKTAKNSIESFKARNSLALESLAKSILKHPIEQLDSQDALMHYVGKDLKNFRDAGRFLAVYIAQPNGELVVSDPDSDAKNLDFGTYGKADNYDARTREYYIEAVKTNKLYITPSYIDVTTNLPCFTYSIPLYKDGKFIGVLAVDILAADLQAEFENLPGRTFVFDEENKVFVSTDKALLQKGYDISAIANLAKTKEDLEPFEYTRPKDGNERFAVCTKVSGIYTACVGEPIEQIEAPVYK
T2 sequence (Q0PBP3 entry or part of it): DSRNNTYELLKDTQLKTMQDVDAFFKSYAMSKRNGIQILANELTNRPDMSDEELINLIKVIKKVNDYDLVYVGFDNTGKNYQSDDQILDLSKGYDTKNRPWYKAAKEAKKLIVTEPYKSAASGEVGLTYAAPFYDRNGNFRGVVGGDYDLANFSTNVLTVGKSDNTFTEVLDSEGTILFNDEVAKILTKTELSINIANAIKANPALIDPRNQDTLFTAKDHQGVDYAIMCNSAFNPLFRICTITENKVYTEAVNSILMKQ
Chain of Tlp3^LBD K149A (Q0P864 41-290 K149A): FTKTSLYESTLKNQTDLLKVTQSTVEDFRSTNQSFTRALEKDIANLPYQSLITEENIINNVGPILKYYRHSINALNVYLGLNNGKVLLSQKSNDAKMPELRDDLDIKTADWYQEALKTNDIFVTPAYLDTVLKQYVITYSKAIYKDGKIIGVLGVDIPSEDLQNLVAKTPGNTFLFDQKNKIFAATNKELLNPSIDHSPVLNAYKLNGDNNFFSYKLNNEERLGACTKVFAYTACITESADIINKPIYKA
Chain of Tlp3^LBD D169A (Q0P864 41-290 D169A): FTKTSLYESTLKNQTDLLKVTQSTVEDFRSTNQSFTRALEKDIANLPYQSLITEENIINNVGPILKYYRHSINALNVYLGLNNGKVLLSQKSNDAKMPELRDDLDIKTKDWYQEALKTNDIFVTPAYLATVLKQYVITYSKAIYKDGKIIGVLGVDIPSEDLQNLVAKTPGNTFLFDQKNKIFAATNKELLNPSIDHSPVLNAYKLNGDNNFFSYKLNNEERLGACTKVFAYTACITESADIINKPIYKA
Chain of Tlp3^LBD D170A (Q0P864 41-290 T170A): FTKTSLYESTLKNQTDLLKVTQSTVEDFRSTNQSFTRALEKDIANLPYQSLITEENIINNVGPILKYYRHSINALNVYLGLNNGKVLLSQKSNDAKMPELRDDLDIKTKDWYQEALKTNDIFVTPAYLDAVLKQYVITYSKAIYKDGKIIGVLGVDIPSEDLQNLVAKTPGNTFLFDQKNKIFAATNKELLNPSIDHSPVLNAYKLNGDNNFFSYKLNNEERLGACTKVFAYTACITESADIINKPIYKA
Chain of Tlp3^LBD W151A (Q0P864 41-290 W151A): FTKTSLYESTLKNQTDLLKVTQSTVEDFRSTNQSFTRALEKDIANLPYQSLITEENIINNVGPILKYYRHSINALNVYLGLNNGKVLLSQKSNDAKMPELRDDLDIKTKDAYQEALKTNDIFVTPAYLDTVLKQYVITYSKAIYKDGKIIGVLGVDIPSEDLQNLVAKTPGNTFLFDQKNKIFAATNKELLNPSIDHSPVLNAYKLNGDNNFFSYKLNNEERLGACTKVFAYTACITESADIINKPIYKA
Chain of Tlp3^LBD D196A (Q0P864 41-290 D196A): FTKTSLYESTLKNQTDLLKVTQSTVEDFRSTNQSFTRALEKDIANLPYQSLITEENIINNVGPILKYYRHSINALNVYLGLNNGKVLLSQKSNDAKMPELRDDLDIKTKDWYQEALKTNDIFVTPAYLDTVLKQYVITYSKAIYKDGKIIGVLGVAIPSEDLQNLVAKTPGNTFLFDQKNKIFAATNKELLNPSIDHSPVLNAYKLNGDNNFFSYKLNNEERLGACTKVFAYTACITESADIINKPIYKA

With `OC[C@H]1OC(O)[C@H](O)[C@@H](O)[C@@H]1O` (stereo partly drawn) [Glucose] the Kd (Tlp2 [1]; [7]) was 18.1 ± 2.2 µM, the Kd (Tlp4 [2]; [8]) was 18.3 ± 1.1 µM and the “binding to Tlp2 on glycan/small molecule array” value (Tlp2 [3]; yes/no binding) was “interacted”. For the same molecule, the “binding to Tlp4 on glycan/small molecule array” value (Tlp4 [4]; yes/no binding) was “interacted”, the “binding to Tlp3 on glycan/small molecule array” value (Tlp3 [5]) was “interacted” and the “SPR response of single analyte” value (WT Tlp3^LBD) was 5.07 RU.
`CC[C@H](C)[C@H](N)C(=O)O` [Isoleucine] showed a Kd (Tlp2 [1]; [7]) greater than 200 µM and a Kd (Tlp4 [2]; [8]) greater than 200 µM.
With `O=C(O)CC(O)C(=O)O` (stereo not drawn) [Malic acid] the Kd (Tlp2 [1]; [7]) was greater than 10000 µM, the Kd (Tlp4 [2]; [8]) was greater than 10000 µM and the “SPR response of single analyte” value (WT Tlp3^LBD) was 13.5 RU.
In the case of `CSCC[C@H](N)C(=O)O` [Methionine], the Kd (Tlp2 [1]) is reported as 1.9 ± 1.2 µM, the Kd (Tlp4 [2]) is reported as 6 ± 4.7 µM and the Kd (Tlp3 [6]; read-out: Tlp3 Affinity) is reported as greater than 200 µM. The “binding to Tlp2 on glycan/small molecule array” value (Tlp2 [3]) was “bound” and the “binding to Tlp4 on glycan/small molecule array” value (Tlp4 [4]) was “bound”.
Work on `c1ncc2nc[nH]c2n1` [Purine] yielded a Kd (Tlp2 [1]; [7]) of 5.4 ± 1.1 µM, a Kd (Tlp4 [2]; [8]) of 1.2 ± 0.7 µM and a Kd (Tlp3 [6]) of 37.2 ± 17.4 µM. For the same molecule, the “binding to Tlp2 on glycan/small molecule array” value (Tlp2 [3]; yes/no binding) was “bound”, the “binding to Tlp4 on glycan/small molecule array” value (Tlp4 [4]; yes/no binding) was “bound” and the “binding to Tlp3 on glycan/small molecule array” value (Tlp3 [5]) was “bind specifically”. For the same molecule, the “migration toward ligand, Δtlp2,3,4 triple mutant” value (Δtlp2,3,4 triple mutant) was “greatest reduction in migration”, the Kd (Tlp3^LBD K149A) was 41.9 ± 24 µM and the Kd (Tlp3^LBD W151A) was 36.1 ± 15.7 µM. For the same molecule, the Kd (Tlp3^LBD D169A) was 15.7 ± 6.6 µM, the Kd (Tlp3^LBD D170A) was 20.6 ± 4 µM and the Kd (Tlp3^LBD D196A) was 35.8 ± 1.5 µM.
`N[C@@H](CO)C(=O)O` [Serine] showed a Kd (Tlp2 [1]; [7]) of 6.9 ± 2.4 µM, a Kd (Tlp4 [2]; [8]) of 14.3 ± 3.2 µM and a Kd (Tlp3 [6]; SPR KD, mean ± SD, NB = no binding, read-out: Tlp3 Affinity) greater than 200 µM. The “binding to Tlp2 on glycan/small molecule array” value (Tlp2 [3]; yes/no binding) was “bound” and the “binding to Tlp4 on glycan/small molecule array” value (Tlp4 [4]; yes/no binding) was “bound”.
